This is an account of results in US9095534B2, “Intermittent dosing of nitric oxide gas” (SENSORMEDICS CORPORATION, priority 2004, dated 2015).

For assay [1], the system named is E. coli. The assay can be described thus: Survival of bacteria under cycled high/low NO gas exposure (cfu/ml). To be noted: 160 ppm for 30 minutes then 20 ppm for 3.5 hours, cycled every 4 hours for 24 hours; compared to air; FIG. 9. The assay is classed as cell-based. The protocol: (§1) The effectiveness of the intermittent nigh dose delivery of […] oxide gas in combating microorganisms was tested and verified. Briefly, the experimental methods were as follows. Inoculums of varying bacteria was prepared to a suspension of 2.5×10^8 cfu/ml, and diluted 1:1000 in sterile normal saline. Three milliliters of the inoculums were used per well in a sterile culture place. Exposure of the inoculums were performed in an exposure chamber, which has been described for example, in Gliafarri, A. et al., “A direct nitric oxide gas delivery system for bacterial and mammalian cell cultures,” Nitric Oxide. 12(3):129-40 (May 2005), which is hereby incorporated by reference as if fully set forth herein. The inoculums were exposed to 160 ppm of NO gas at a flow rate of 2.5 liters per minute for 30 minutes followed by exposure to 20 ppm of NO gas for 3.5 hours. The exposure to high and low concentrations of NO gas was repeatedly cycled every 4 hours for 24 hours. At various times (e.g., 0, 4, 8, and 12 hours), samples were taken and plated to determine the survivability of the bacteria as determined by counting cfu/ml.

Assay [2] deals with P. aeruginosa (ATCC #27853). The description is as above. The assay is classed as cell-based. The following applies: 160 ppm for 30 minutes then 20 ppm for 3.5 hours, cycled every 4 hours for 24 hours; compared to air; FIG. 7. The method, then: as §1
Assay [3] has as its system P. aeruginosa (clinical strain from Cystic Fibrosis). Described as above. The following applies: 160 ppm for 30 minutes then 20 ppm for 3.5 hours, cycled every 4 hours for 24 hours; compared to air; FIG. 8. The assay is classed as cell-based. The method, then:
as §1

Assay [4] relates to S. aureus (ATCC #25923). The description is as above. The assay is classed as cell-based. To be noted: 160 ppm for 30 minutes then 20 ppm for 3.5 hours, cycled every 4 hours for 24 hours; compared to air; FIG. 6. The protocol: as §1
The subject of assay [5] is Mycobacteria. The assay can be described thus: Sensitivity of various microorganisms to NO gas damage. The assay is classed as cell-based. To be noted: relative to other microorganisms studied. The protocol: (§2) Additional studies were performed to test the hypothesis that the effect of NO gas in killing microorganisms is related to thiol function. […] This may be due to Mycobacteria having an exceptional thiol, mycothiol, that maintains the redox balance in the cell and protects the cell from nitrosative and oxidative stress. In order to test this hypothesis, sensitivities to NO gas was compared between mycothiol-deficient Mycobacterium smegmatis Mutant MshA to its wild type counterpart, mc^2155 by exposing both strains to 200 ppm of NO gas. MshA is an enzyme needed in mycothiol biosynthesis.

Assay [6] deals with mycothiol-deficient Mycobacterium smegmatis Mutant MshA. The assay can be described thus: Survival of mycothiol-deficient mutant versus wild type on exposure to NO gas. The assay is classed as cell-based. The following applies: 200 ppm NO gas; FIG. 10. The method, then: as §2
Assay [7] deals with mycothiol in wild type M. smegmatis. The assay is described as follows: Mycothiol level by HPLC after exposure to NO gas. The assay is classed as cell-based, Mycobacterium smegmatis. To be noted: 400 ppm NO gas, compared to exposure to air, FIG. 11. The method, then:
Further experiments were conducted to assay and measure the mycothiol level using HPLC in wild type M. smegmatis after exposure to 400 ppm NO gas and were compared to mycothiol level after exposure to air.

With `[N]=O` [nitric oxide], in assay [1], the “survival of E. coli” value was “effective method of killing the bacteria”. In assay [2], the “survival of P. aeruginosa (ATCC #27853)” value was “effective method of killing the bacteria”. In assay [3], the “survival of P. aeruginosa (clinical strain from Cystic Fibrosis)” value is “effective method of killing the bacteria”. The “survival of S. aureus (ATCC #25923)” value in assay [4] is given as “effective method of killing the bacteria”. In addition, the “sensitivity of Mycobacteria to NO gas damage” value in assay [5] was “less sensitive to NO gas damage”. In addition, in assay [6], the “sensitivity of MshA mutant to NO gas versus wild type mc^2155” value is listed as “more sensitive to NO gas than its wild type counterpart” and the “time to kill MshA mutant versus wild type mc^2155” value is “killed in less time than its wild type counterpart”. Further, the “level of mycothiol in wild type M. smegmatis” value in assay [7] was “reduced compared to exposure to air”.
